The text below walks through data of ChEMBL document CHEMBL1255486, “Effect of vicriviroc on the QT/corrected QT interval and central nervous system in healthy subjects” (Antimicrob Agents Chemother, 2010).

What all share (parameters): dose 400 mg/kg, route oral
What all share (details): in vivo

The test system of data set [1] is Homo sapiens. Description: Toxicity in healthy human assessed as dizziness at 400 mg/kg, po administered as single dose. Type of data set: organism-based.
Data set [2] relates to Homo sapiens. Description: Toxicity in healthy human assessed as abdominal pain at 400 mg/kg, po administered as single dose. Type of data set: organism-based, Abdomen.
The test system of data set [3] is Homo sapiens. In words: Toxicity in healthy human assessed as diarrhea at 400 mg/kg, po administered as single dose. The data set is classed as organism-based.
Data set [4] deals with Homo sapiens. In words: Cardiotoxicity in healthy human assessed as change in corrected QT interval at 400 mg/kg, po within 3 hrs by ECG. The data set is classed as toxicity, organism-based.
In data set [5] the test system is Homo sapiens. Description: Toxicity in healthy human assessed as headache at 400 […], po administered as single dose. Type of data set: organism-based.
For data set [6], the system named is Homo sapiens. Description: Toxicity in healthy human assessed as nausea at 400 […], po administered as single dose. Type of data set: organism-based.
The test system of data set [7] is Homo sapiens. In words: Cardiotoxicity in healthy human assessed as change in corrected QT interval at 400 mg/kg, po within 12 hrs by ECG. Type of data set: toxicity, organism-based.

For `COc1c(N2C[C@@H]3CCCN[C@@H]3C2)c(F)cc2c(=O)c(C(=O)O)cn(C3CC3)c12` [MOXIFLOXACIN], the Activity was 0% in the data set with Homo sapiens [1]; 5% with Homo sapiens [2]; 3% with Homo sapiens [3]; “Non-toxic” with Homo sapiens [4]; 5% with Homo sapiens [5]; 3% in the data set with Homo sapiens [6]. The QTc change in the data set on Homo sapiens [7] was 10 ms.
